Results as given in patent publication US20100267653A1, “USE OF COUMARIN DERIVATIVES IN ANTIFUNGAL THERAPY” (priority 2006, published 2010).
Converted amounts (≈) assume the structure as drawn. Where two headings read alike, the source gives them in different places.

How the values were obtained:
[1] = Solubility of coumarins in RPMI 1640 media and DMSO; format: physicochemical; conditions: for DMSO Concentration: DMSO present for the stated solubility in RPMI 1640; for solubility: aqueous buffer, kinetic from dmso stock, pH = 7.0, in presence of the DMSO concentration of the same table line
Method: The solubility of the aglycones was compared to the respective glycoside in RPMI 1640 media and in DMSO.
(§1) Solubilisation of other compounds required the presence of DMSO. Esculetin, daphnetin, 4-(trifluoromethyl) coumarin, 4-(trifluoromethyl)-coumarin-7-0-glucose and cichoriin were dissolved in DMSO at 1000× final test concentration; when this solution was diluted to the concentration used in the experiments using 2× strength RPMI 1640 medium, the final concentration of DMSO was […] which alone had no effect on the fungi when tested in several experiments performed. Fraxetin required a final concentration of 0.2% DMSO, but this too had no effect on the growth of the fungi when tested in separate experiments.

[2] = tested on: Trichophyton interdigitale NCPF335; experiment: Antifungal activity, growth in RPMI 1640 microtitre plates (OD 530 nm); format: cell-based; conditions: for MIC: Trichophyton interdigitale, T. interdigitale NCPF335, 30° C.
Method: (§2) Esculin, esculetin and a range of other coumarins and their glycosides were tested for their antifungal activity against Trichophyton rubrum, Trichophyton interdigitale and other fungi isolated from nails and skin.
(§3) Suspensions of fungal conidia and hyphal fragments for use as experimental inocula were prepared by adding 3 ml of demineralised water or 0.15% (w/v) NaCl solution to a slope culture which had been incubated at 30° C. for 7 to 10 days and probing the surface of the culture with a sterile plastic transfer pipette. […] The resulting suspension was filtered through a double layer of sterile surgical gauze; if necessary a further volume of up to 3 ml of water or 0.15% (w/v) NaCl was used to wash through any spores or small hyphal fragments held on the gauze. 100 μl of this suspension, adjusted to an optical density between 0.14 and 0.16 at 530 nm (corresponding to between 0.5 and 1.5×10^6 propagules/ml) was added to the wells in sterile 96-well microtitre plates to which 100 μl of 2× strength RPMI 1640 media (a chemically-defined nutrient medium widely used in tissue culture and antimicrobial resistance testing) had been added. Inocula prepared in this way were used in all of the experiments; additionally, for some experiments with esculin shown in FIG. 4, the results obtained with standard inocula prepared as described above (labelled “young inoculum” in FIG. 4), were compared with the results obtained in similar tests using inocula which had been cultured for up to 9 weeks (labelled “old inoculum” in FIG. 4). As appropriate, coumarins were pre-dissolved in 2× strength RPMI 1640 medium before addition to the plate. Experiments with the yeasts Candida albicans and Candida krusei were set up in the same way, but in these cases, filtration of the cell suspensions was not necessary.
as §1
(§4) A series of dilutions of the coumarin solutions was prepared on the plates by mixing known volumes of the coumarin stock solutions in the wells with fresh volumes of 2×RPMI 1640 medium. Each concentration of coumarin was studied in triplicate wells. For observations on Trichophyton rubrum NCPF118 and Trichophyton interdigitale NCPF335, obtained from the National Collection of Pathogenic Fungi (Bristol), the plates were incubated in a Bio-Tek Powerwave XS scanning plate reader at 30° C., and fungal growth within the plates was measured at intervals of 2 h for up to 72 h or 96 h as specified in the text by recording the absorbance (optical density) of the wells at 530 nm. Observations on Candida albicans and Candida krusei were made in the same way, but the incubation temperature was 37° C. and the incubation time was 48 h. For observations with clinical fungal isolates obtained from the collection of M. Monod (Lausanne, Switzerland), the procedure was as described above except that in response to the relatively slow growth of these isolates, incubations were performed in a static incubator at 30° C. and the plates were read manually in a Bio-Tek Powerwave XS scanning plate reader at intervals of 24 h for up to 168 h, being returned to the incubator after each reading. Malassezia furfur grows poorly in the system described above, so for this organism, a standard inoculum of M. furfur was mixed with an equal volume of a solution of esculetin and the mixture was plated onto Petri dishes containing Sabouraud's agar medium. […]

[3] = tested on: Trichophyton rubrum NCPF118; experiment: as above; format: cell-based; conditions: for MIC: T. rubrum NCPF118, 30° C.
Method: as §2, §3, §1, §4

[4] = tested on: Candida albicans, Cryptococcus neoformans, Saccharomyces cerevisiae and Aspergillus niger; conditions: Sardari et al, Bioorg. Med. Chem. 7, 1999; cited from earlier work
[5] = old inoculum (cultured up to 9 weeks) versus young inoculum, FIG. 4
[6] = Trichophyton rubrum, read-out: MIC

MIC [3] [µM] | Compound | DMSO Concentration [1] [% v/v] | solubility [1] [µM] | solubility in 2×RPMI 1640 solution (in words) ([1]; without DMSO) | effect on the growth of Trichophyton interdigitale NCPF335 ([2]; addition of β-glucosidase and esculin, FIG. 2) | sensitivity of older cultures of T. interdigitale NCPF335 [2, 5] | effect on the growth of Trichophyton rubrum NCPF118 ([3]; addition of β-glucosidase and esculin, FIG. 1) | sensitivity of older cultures of T. rubrum NCPF118 [3, 5] | antifungal activity against the fungi tested [4] | MIC [2] [µM] | MIC [3, 6] [µM]
– | O=c1ccc2cc(OC3OC(CO)C(O)C(O)C3O)c(O)cc2o1 (centres unmarked) [Esculin, 6,7 dihydroxycoumarin-6-glucoside] | 0 | 20000 | dissolves readily | significantly inhibits fungal growth | more sensitive | significantly inhibits fungal growth | more sensitive | minimal antifungal activity | – | –
– | COc1cc2ccc(=O)oc2c(O)c1O [Fraxetin, 7,8 dihydroxy-6-methoxycoumarin] | 0.4 | 5000 | – | – | – | – | – | – | 500 (≈ 104 µg/mL) | 250 (≈ 52 µg/mL)
– | O=c1ccc2ccc(O)c(O)c2o1 [Daphnetin, 7,8-dihydroxycoumarin] | 0.1 | 5000 | – | – | – | – | – | – | 250 (≈ 44.5 µg/mL) | 500 (≈ 89.1 µg/mL)
1000 (≈ 192 µg/mL) | Cc1cc(=O)oc2cc(O)c(O)cc12 [4 methyl esculetin] | – | – | – | – | – | – | – | – | – | –
